{"source": "patent US9587225B2", "about": "“Low-molecular-compound for improving production, maintenance and proliferation of pluripotent stem cells, composition comprising the same, and culture method” (KOREA RESEARCH INSTITUTE OF BIOSCIENCE AND BIOTECHNOLOGY, priority 2012, dated 2017)", "key": {"[1]": {"test_system": "H9 human embryonic stem cells", "experiment": "Maintenance of undifferentiated state of hESC in unconditioned medium", "type": "cell-based", "description": "It was observed that, when H9 human embryonic stem cells (hESs) were cultured in unconditioned medium (UM), the differentiation thereof was induced, but when the cells were cultured in UM containing RSC-133, the degree of induced differentiation was inhibited, and pluripotency was acquired again. The efficiency of acquisition of pluripotency was measured by calculating the number of colonies showing AP activity. The values shown on the graph are mean values. The data are expressed as mean±SD (n=3) (*P<0.01, **P<0.005, by t-test).\nHuman skin fibroblasts (hFFs) were used as a negative control group. H3 and GAPDH proteins were used as internal controls.\nHuman embryonic stem cell (hESC) H9 (NIH Code, WA09; WiCell Research Institute, Madison, Wis.) and reprogrammed stem cells (hiPSC) were generally cultured in hESC culture medium (composed of 80% DMEM/F12, 20% knockout serum replacement (KSR, Invitrogen, Carlsbad, Calif.), 1% non-essential amino acids (NEAR, Invitrogen), 1 mM L-glutamine (Invitrogen), 0.1 mM β-mercaptoethanol (Sigma, St. Louis, Mo.) and 6 ng/ml bFGF (basic fibroblast growth factor, Invitrogen)) on γ-irradiated MEFs (mouse embryonic fibroblasts). The cells were subcultured with 1 mg/ml collagenase IV (Invitrogen) at intervals of 5-6 days. Human newborn foreskin fibroblasts (hFF, ATCC, catalog number CRL-2097; American Type Culture Collection, Manassas, Va.) were cultured in DMEM containing 10% FBS (fetal bovine serum, Invitrogen), 1% non-essential amino acid, 1 mM L-glutamine and 0.1 mM β-mercaptoethanol.\nWhen human embryonic stem cells (H9) are cultured in unconditioned medium (UM), their differentiation is induced. […] As a positive control group, embryonic stem cells cultured for 6 days in MEF-conditioned medium (CM) effective for maintenance of an undifferentiated state were used. The efficiency of maintenance of an undifferentiated state and inhibition of differentiation was determined by measuring the number of colonies showing AP activity (the lower panel of FIG. 28). […]"}, "[2]": {"test_system": "Nanog, Oct4, Rex1, p53, p21 and p16", "experiment": "Expression of pluripotency markers and p53, p21, p16 during reprogramming (real-time RT-PCR, immunostaining)", "type": "cell-based, human", "description": "In still another example of the present invention, in order to examine whether the novel compound RSC-133 can promote kinetics in a culture process for reprogramming to shorten the time required for the induction of reprogramming, the expression patterns of pluripotency-specific markers were analyzed at various time points.\nTotal RNA was isolated from the produced cells using RNeasy Mini kit (Qiagen, Valencia, Calif.), and then reverse-transcribed using SuperScript First-strand synthesis system kit (Invitrogen) according to the manufacturer's instruction. […]\nIn order to examine whether RSC-133 can increase the rate of reprogramming, the relative levels of mRNA expressed during the reprogramming process were measured. […] Thus, it can be seen that RSC-133 can increase the efficiency of reprogramming and also can be involved in the reprogramming process to stimulate kinetics."}}}
{"smiles": "NC(=O)c1cccc(NC(=O)/C=C/c2c[nH]c3ccccc23)c1", "note": "[RSC-133, 3-[3-(1H-indol-3-yl)-acrylamido]-benzamide]", "values": [{"measurement": "induced differentiation and pluripotency of hESC in unconditioned medium (AP-positive colonies)", "setting": "[1]; H9 cultured 6 days in UM supplemented with RSC-133 (FIG. 28)", "result": "the degree of induced differentiation was inhibited and pluripotency was re-acquired"}, {"measurement": "expression of Oct4 and H3K9ace (Western blot)", "setting": "[1]; H9 in UM containing RSC-133 vs CM (FIG. 29)", "result": "at levels similar to those in the human embryonic stem cells cultured in CM"}, {"measurement": "expression of pluripotency-specific markers Oct4 and Tra1-81 (immunostaining)", "setting": "[1]; H9 in UM supplemented with RSC-133 vs CM", "result": "expressed at levels similar to those of human embryonic stem cells cultured in CM"}, {"measurement": "time of appearance of pluripotency-specific markers (Nanog, Tra1-81, Oct4, Rex1)", "setting": "[2]; immunostaining and real-time PCR at various time points (FIGS. 15, 16)", "result": "appeared early than that in an untreated control group"}, {"measurement": "expression levels of undifferentiation markers Nanog, Oct4 and Rex1", "setting": "[2]; real-time RT-PCR, cells harvested at 5-day intervals, presence vs absence of RSC-133 (FIG. 16)", "result": "relatively increased"}, {"measurement": "expression levels of p53, p21 and p16", "setting": "[2]; real-time RT-PCR, presence vs absence of RSC-133 (FIG. 16 lower panel)", "result": "relatively inhibited"}]}
